This is an account of results in patent US8536354B2, “Steroidal ligands and their use in gene switch modulation” (Intrexon Corporation, priority 2008, dated 2013).

The nature of data set [1]: Log D measurement (shake flask, pH 7.4 buffer / octanol). It counts as physicochemical. Particulars: octanol/pH 7.4 buffer (shake flask), pH 7.4 buffer / water-saturated octanol, read-out: Experimental logD.
Description: (§1) Each shake flask was agitated for 60 minutes at room temperature, then allowed to stand for 1 hour at room temperature. […] Absorbance was compared to that of a reference standard at the same absorbance maximum for a 1-2% solution of the same steroid in CH3OH, allowing for up to 10 nM maxima shift due to solvent effect.
Data set [2] is described as follows: Caco II permeability assay. Particulars: human, Caco-2, pH 7.4. On the technique in general: Caco-2 cells form a polarised layer with tight junctions and transporters.
In another data set the target is VgEcR/RXR (Drosophila melanogaster, UniProt P34021, E282G/G283S/G286V).
Data set [3] addresses T1, wild-type Drosophila melanogaster EcR (DmEcR-DEF) (Drosophila melanogaster, UniProt P34021).
T1 sequence (P34021 342-878 limits assumed): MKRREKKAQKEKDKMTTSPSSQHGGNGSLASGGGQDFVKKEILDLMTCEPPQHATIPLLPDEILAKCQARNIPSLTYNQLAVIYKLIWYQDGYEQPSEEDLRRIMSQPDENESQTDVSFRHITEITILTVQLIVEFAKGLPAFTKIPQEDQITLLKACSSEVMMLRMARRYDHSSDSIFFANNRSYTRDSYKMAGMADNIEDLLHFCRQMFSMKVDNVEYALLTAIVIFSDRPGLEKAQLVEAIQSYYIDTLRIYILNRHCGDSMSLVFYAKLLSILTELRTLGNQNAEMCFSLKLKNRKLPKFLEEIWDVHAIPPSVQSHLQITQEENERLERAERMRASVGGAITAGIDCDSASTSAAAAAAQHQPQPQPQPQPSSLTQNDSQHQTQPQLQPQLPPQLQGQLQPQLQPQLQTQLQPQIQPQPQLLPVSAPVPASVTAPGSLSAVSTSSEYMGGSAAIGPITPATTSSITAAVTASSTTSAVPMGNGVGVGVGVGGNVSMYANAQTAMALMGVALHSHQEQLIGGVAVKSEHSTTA
Kind of data set: Two-hybrid gene switch assay, DmEcR-DEF in NIH3T3 cells. Particulars: EC50, DmEcR gene switch, NIH3T3, Example One.

Data set [4] has as its target T2, wild-type Choristoneura fumiferana EcR (CfEcR-DEF) (Choristoneura fumiferana, UniProt O77255).
T2 sequence (O77255 219-541): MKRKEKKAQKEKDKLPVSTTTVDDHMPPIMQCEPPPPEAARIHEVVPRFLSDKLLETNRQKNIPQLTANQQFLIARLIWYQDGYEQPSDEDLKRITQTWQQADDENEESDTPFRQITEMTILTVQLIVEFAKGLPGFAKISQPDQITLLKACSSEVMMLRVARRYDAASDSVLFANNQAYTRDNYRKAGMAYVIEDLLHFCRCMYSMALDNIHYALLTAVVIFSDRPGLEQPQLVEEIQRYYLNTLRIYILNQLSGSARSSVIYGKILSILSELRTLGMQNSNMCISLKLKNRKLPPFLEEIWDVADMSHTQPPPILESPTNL
T2 sequence (P28702 299-449 partner): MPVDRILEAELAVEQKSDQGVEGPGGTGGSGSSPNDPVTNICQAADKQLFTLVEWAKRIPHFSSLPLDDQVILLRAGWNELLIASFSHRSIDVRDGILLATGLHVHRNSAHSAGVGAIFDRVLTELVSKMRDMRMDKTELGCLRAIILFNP
The data set is described as follows: Two-hybrid gene switch assay, wild-type CfEcR-DEF (GAL4-EcR / VP16-RXR-USP chimera, luciferase) in NIH3T3 cells.

Data set [5] in a line: Water solubility measurement (saturated solutions, 25° C., UV absorbance). The conditions noted are these: for solubility: 25 °C, thermodynamic from solid.
Description: as §1
For data set [6], the system named is D. melanogaster BII cell line (expresses the ecdysteroid receptor complex EcR-USP). The data set is described as follows: Drosophila melanogaster BII cell line bioassay (turbidometric; agonist and antagonist versions). The conditions noted are these: Drosophila melanogaster, read-out: EC50 (M), BII bioassay results.
The subject of data set [7] is EcRs (lepidopteran and non-lepidopteran). The data set is described as follows: Two-hybrid gene switch assays, statements across the set of ten EcRs in NIH3T3 cells. The conditions noted are these: for activity across the tested set of EcRs: FIGS. 13 and 14; for pEC50: read-out: potency (EC50).
Data set [8] addresses T3, wild-type Aedes aegypti EcR (AaEcR-DEF) (Aedes aegypti, UniProt P49880).
T3 sequence (P49880 405-776 limits assumed): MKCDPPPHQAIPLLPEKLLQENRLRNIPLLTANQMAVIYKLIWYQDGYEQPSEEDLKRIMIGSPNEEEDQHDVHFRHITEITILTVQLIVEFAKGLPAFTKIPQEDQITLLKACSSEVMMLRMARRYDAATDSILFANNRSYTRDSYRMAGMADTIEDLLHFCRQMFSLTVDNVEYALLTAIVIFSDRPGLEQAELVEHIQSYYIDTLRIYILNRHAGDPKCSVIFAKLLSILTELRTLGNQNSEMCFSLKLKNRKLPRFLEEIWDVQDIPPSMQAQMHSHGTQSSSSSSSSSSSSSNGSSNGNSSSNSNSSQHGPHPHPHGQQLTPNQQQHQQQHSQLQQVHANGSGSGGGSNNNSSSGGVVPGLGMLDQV
Kind of data set: Two-hybrid gene switch assay, AaEcR-DEF in NIH3T3 cells. Particulars: for pEC50: NIH3T3, Example One; for potency as activator of AaEcR: Example Two.

The target in the next data set is T4, Bombyx mori EcR (BmEcR) (Bombyx mori, UniProt P49881).
T4 sequence (P49881 352-589 limits assumed): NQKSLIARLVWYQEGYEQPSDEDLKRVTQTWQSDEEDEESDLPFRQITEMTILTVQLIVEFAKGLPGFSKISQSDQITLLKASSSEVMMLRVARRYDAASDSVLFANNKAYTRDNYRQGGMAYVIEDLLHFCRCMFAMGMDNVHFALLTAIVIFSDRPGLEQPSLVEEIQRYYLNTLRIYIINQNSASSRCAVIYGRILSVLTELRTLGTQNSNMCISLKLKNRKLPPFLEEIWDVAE
The data set is described as follows: Two-hybrid gene switch assay, BmEcR in NIH3T3 cells.

For data set [9], the system named is Nephotettix cincticeps EcR (NcEcR-DEF). Kind of data set: Two-hybrid gene switch assay, NcEcR-DEF in NIH3T3 cells. The conditions noted are these: Example Two.
Data set [10] is described as follows: Plasma protein binding assay (dialysis). Type of data set: in vitro ADME. The conditions noted are these: both sexes; human plasma vs PBS pH 7.4, ca. 24 hours at 37° C.
The conditions of data set [11]: in human; cited from earlier work.
The next data set can be described thus: physchem. The conditions noted are these: 25 °C, water, thermodynamic from solid.
The target in data set [12] is Bemisia argentifolii EcR (BaEcR-DEF) (Bemisia argentifolii (Bemisia tabaci biotype B / MEAM1), UniProt A0A6M3RDR8). The data set is described as follows: Two-hybrid gene switch assay, BaEcR-DEF in NIH3T3 cells.
[13] abbreviates: EC50, VgEcR/RXR switch in 3T3 cells.
[14] abbreviates: wt-CfEcR gene switch, NIH3T3, Example One.

pEC50: −log10 of the molar value. In brackets after ≈: the same amount, converted by molar mass. Several values for one entry are separate records, joined by “and”; a condition that tells them apart may be missing. Equal entries are not always repeated. Where two headings read alike, the source gives them in different places.

VgEcR/RXR, sequence (P34021 whole entry E282G/G283S/G286V): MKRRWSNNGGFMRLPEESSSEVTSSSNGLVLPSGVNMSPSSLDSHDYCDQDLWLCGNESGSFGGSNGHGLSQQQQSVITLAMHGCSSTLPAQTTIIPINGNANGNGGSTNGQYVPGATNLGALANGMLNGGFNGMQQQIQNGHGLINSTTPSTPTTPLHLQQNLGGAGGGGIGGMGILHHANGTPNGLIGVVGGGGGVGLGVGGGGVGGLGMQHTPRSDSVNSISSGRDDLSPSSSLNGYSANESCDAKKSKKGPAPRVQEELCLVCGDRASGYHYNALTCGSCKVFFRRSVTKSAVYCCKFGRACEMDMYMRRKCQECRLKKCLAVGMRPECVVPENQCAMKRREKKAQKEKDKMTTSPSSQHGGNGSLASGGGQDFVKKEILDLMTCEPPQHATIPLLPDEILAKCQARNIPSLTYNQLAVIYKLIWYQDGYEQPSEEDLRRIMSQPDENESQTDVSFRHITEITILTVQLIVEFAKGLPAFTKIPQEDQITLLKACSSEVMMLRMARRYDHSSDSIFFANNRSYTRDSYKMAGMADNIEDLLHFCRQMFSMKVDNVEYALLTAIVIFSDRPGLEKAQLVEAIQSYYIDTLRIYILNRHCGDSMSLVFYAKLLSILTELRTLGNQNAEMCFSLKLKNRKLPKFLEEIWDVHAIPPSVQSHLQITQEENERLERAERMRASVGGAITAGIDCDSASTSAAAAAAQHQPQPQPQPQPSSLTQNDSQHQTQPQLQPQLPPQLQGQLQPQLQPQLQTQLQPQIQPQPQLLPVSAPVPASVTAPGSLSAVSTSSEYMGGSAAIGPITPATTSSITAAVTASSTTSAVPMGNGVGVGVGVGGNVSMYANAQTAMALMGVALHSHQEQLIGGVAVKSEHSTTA
VgEcR/RXR, sequence (P19793 whole entry, further chain): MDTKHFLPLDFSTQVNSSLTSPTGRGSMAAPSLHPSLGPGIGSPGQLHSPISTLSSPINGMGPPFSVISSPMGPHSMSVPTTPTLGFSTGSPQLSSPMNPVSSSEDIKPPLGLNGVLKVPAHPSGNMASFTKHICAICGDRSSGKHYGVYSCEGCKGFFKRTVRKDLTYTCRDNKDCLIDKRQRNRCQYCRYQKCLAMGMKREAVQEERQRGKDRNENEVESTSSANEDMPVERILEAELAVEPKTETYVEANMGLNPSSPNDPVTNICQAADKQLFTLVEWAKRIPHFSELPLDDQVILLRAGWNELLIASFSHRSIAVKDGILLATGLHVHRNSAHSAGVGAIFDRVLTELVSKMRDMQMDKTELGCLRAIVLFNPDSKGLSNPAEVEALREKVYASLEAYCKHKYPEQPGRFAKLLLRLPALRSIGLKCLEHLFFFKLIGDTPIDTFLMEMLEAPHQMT
Bemisia argentifolii EcR (BaEcR-DEF), sequence (P28702 298-449): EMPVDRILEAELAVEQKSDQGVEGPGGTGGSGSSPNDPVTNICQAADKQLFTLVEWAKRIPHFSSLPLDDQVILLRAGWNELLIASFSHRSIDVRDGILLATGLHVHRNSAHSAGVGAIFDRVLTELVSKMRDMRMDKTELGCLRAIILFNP
Bemisia argentifolii EcR (BaEcR-DEF), sequence (A0A6M3RDR8 entry or part of it): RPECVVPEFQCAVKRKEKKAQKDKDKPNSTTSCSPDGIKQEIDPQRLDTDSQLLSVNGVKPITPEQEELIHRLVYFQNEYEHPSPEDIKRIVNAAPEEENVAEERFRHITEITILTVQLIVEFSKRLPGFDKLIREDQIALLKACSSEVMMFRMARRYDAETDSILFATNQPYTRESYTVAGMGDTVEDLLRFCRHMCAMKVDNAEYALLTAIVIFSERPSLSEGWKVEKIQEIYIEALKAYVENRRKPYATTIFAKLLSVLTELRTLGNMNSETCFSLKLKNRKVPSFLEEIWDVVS
Description for physchem: as §1

The logD is the decadic logarithm of the distribution of all forms, ionised or not, between an organic phase and buffer at a given pH. For orientation: Papp A→B means how fast a substance crosses the layer from the apical side. Broadly, the Papp B→A is the apparent permeability from the basolateral to the apical side of a cell layer. The term efflux ratio denotes the permeability from basolateral to apical divided by that in the opposite direction, in the common usage. Broadly, the pEC50 is the EC50 on a negative log10 scale, so that one unit is a factor of ten. Usually solubility stands for how much of the substance goes into solution per volume. High values mean a readily soluble substance, low ones a poorly soluble substance. What is called EC50 is the concentration that produces a half-maximal response. As a reminder, the fraction unbound is free concentration divided by total concentration. A high value points to weak binding. For the molecule `CC(C)CC[C@@H](O)[C@](C)(O)[C@H]1CC[C@@]2(O)C3=CC(=O)[C@@H]4C[C@@H](O)[C@@H](O)C[C@]4(C)[C@H]3CC[C@]12C` [PoA, ponasterone A], the logD in data set [1] turned out to be 1.95. The Papp A→B at 120 min in data set [2] is 2.26 ×10⁻⁶ cm/s. Moreover, in [2], the Papp B→A at 120 min was 13.9 ×10⁻⁶ cm/s. Moreover, the efflux ratio at 120 min in data set [2] was 6.2. Also, the pEC50 on VgEcR/RXR (setting [13]) is 6.19; on VgEcR/RXR (EC50, VgEcR/RXR system) it was 6.19; in [3] it was about 7.18; in data set [4], 6.72; in data set [7] (Nc, Aa, and Ama EcRs), 8.70 to 9.52; in [8] (EC50, AaEcR gene switch) it was 8.96. Also, the pEC50 on Bombyx mori EcR (BmEcR) was 6.96; in data set [9], 9.52. Moreover, the RMFI on VgEcR/RXR (VgEcR/RXR system) worked out at 1.5; on Bombyx mori EcR (BmEcR) (BmEcR, Example Two), 0.98; in data set [9], 1. For the same molecule, the “RMFI (relative maximum fold induction, relative to diacylhydrazine 30)” value in data set [4] (setting [14]) was ~0.18 and ~0.2. Moreover, the solubility in data set [5] stood at 180 µg/mL (≈ 387 µM). In addition, in [6], the EC50 turned out to be 2.6e-10 M. In addition, the “activity across the tested set of EcRs” value in [7] was “active”. For the same molecule, the “potency” value in [7] (all EcRs tested) is “submicromolar potency”. The “potency as activator of AaEcR” value in data set [8] is reported as “single digit nM”. In data set [8] (NIH3T3, read-out: FI (fold induction)), the fold induction at 1 µM was 166. The “RLUs (absolute expression of the reporter gene)” value in data set [8] ([AaEcR]) is about 1046. Besides, the free fraction (fraction unbound) in [10] is 0.426.
As for `CC(C)(O)CCC(O)C(C)(O)C1CCC2(O)C3=CC(=O)C4CC(O)C(O)CC4(C)C3CCC12C` (centres unmarked) [20E, 20-hydroxyecdysone], the logD in data set [1] stood at 0.01. Besides, in data set [2], the Papp A→B at 120 min worked out at 0.11 ×10⁻⁶ cm/s, the Papp B→A at 120 min was found to be 0.39 ×10⁻⁶ cm/s and the efflux ratio at 120 min was 3.5. The same molecule had a pEC50 in data set [4] of under 4.48. Further, the “activity in wt-CfEcR assay” value in [4] (Example One) was “essentially inactive”. Further, the “response toward CfEcR” value in data set [4] (Example Two) is “virtually no response”. In addition, in data set [11], the estimated half-life was 9 h. Further, in data set [6], the EC50 was 7.6e-09 M. In data set [10], the fraction unbound was 0.908. This molecule also showed a solubility in “physchem” of 6700 µg/mL (≈ 13900 µM).
As to `CCc1c(OC)cccc1C(=O)NN(C(=O)c1cc(C)cc(C)c1)C(C)(C)C` [diacylhydrazine 30], the pEC50 was 5.22 in data set [12] and 7.70 to 8.52 in data set [7] (lepidopteran receptors). Besides, the logD in data set [1] stood at 3.4. Besides, in [4] (NIH3T3, 48 h, read-out: reference FI (1 microM)), the fold induction at 1 µM is 806. For the same molecule, the solubility in [5] was found to be 6.2 µg/mL (≈ 16.2 µM). Moreover, in data set [8], the “potency as activator of AaEcR” value is listed as “single digit nM”. For the same molecule, the “diacylhydrazine reference FI” value at Bombyx mori EcR (BmEcR) (BmEcR, Example Two, background FI=3) stood at 1776.
Turning to `CO[C@H](CCC(C)C)[C@](C)(O)[C@H]1CC[C@@]2(O)C3=CC(=O)[C@@H]4C[C@@H](O)[C@@H](O)C[C@]4(C)[C@H]3CC[C@]12C` [compound 18, ponasterone A, 22-methyl ether], the pEC50 at VgEcR/RXR (setting [13]) is 6.26; on VgEcR/RXR (EC50, VgEcR/RXR system), 6.27; in data set [3], 7.18 and ~7.18; in data set [8] (EC50, AaEcR gene switch) it was 9.42. Further, at VgEcR/RXR (VgEcR/RXR system), the RMFI was determined as 1.5. For the same molecule, the “RMFI (relative maximum fold induction, relative to diacylhydrazine 30)” value in data set [4] (setting [14]) was about 0.6. Also, the EC50 in data set [6] stood at 2.2e-08 M.
Consider `CC(C)CC[C@@H](O)[C@](C)(O)[C@H]1CC[C@@]2(O)C3=CC(=O)[C@]4(O)C[C@@H](O)[C@@H](O)C[C@]4(C)[C@H]3[C@H](O)C[C@]12C` [muristerone A], for which the pEC50 on VgEcR/RXR (VgEcR/RXR switch in 3T3 cells) is 6.07; on VgEcR/RXR (VgEcR/RXR system), 6.07; in data set [4] (setting [14]), 5.13; in data set [8] (AaEcR gene switch) it was 8.05. The molecule also gave an RMFI at VgEcR/RXR (VgEcR/RXR system) of 1.3. In data set [5] (25° C.), this molecule yielded an Experimental aqueous solubility of over 2900 µg/mL. In addition, in data set [7], the “activity across the tested set of EcRs” value is “active”.
